The test system of experiment [1] is Xanthomonas campestris. The experiment can be described thus: Burkholder's spot bioassay on carpet of bacteria. In kind it is cell-based.
Experiment [2] relates to Pathogenic Salmonella (S1). The experiment in a line: Burkholder's spot bioassay on carpet of bacteria. In kind it is cell-based. The conditions noted are these: Salmonella spp. (SL1); composition 2% + thymol 1:512, or single dose of thymol 1:512.
Experiment [3] concerns Env. Salmonella (S22). The experiment in a line: Burkholder's spot bioassay on carpet of bacteria. The class given is cell-based. The conditions noted are these: Salmonella spp. (S22); composition 2% + thymol 1:512, or single dose of thymol 1:512. On the procedure:
Referring now to FIGS. 26A to 26C, environmental Salmonella (S22) treated with thyme, yarrow, the botanical composition and control (C) are shown. […] A determined volume of (i.e. 10 μl) dissolved extract from each concentration is spotted on carpet of bacteria.

Experiment [4] relates to Aspergillus ochraceus. The experiment in a line: Antifungal and MIC spot assay on carpet of fungi. As to conditions: composition 1% + thymol 1:768, or thymol 1:768 alone.
Experiment [5] deals with Salmonella (S31). The experiment can be described thus: Burkholder's spot bioassay on carpet of bacteria. The class given is cell-based. As to conditions: Salmonella spp. (S531); composition 2% + thymol 1:512, or single dose of thymol 1:512. The source says: Referring now to FIG. 28, Salmonella (S31—mungbean sprout isolate) treated with thyme is shown.
The test system of experiment [6] is Fusarium graminearum. In kind it is cell-based. As to conditions: thyme, yarrow extracts; 35% ethanol.

As for `Cc1ccc(C(C)C)c(O)c1` [thymol], the antimicrobial effectiveness entry in experiment [1], in experiment [2], in experiment [3] and in experiment [5] was “not effective” throughout. Moreover, the “antifungal effectiveness on growth” value in experiment [4] was “not effective”.

Regarding `CCO` [35% ethanol, ethanol], the “inhibition of spore germination” value in experiment [6] is “complete inhibition”.

Source of the values: US20220272990A1, “Methods and Compositions of the Botanical Extract to Promote and Boost Plant Growth and Prevent and Suppress Plant Diseases” (priority 2019, published 2022).
